Each structure is given as a SMILES string.

Assay [1] can be described thus: UV-vis spectral response and spectrophotometric titration with ADP. The assay is classed as binding. As to the method: (§1) In order to examine the binding behaviour of the Zn-complex (L.Zn) (Scheme 1, Formula 1A) to various important anions (like ATP, CTP, ADP, AMP, PPi, H2PO4^−, SO4^2−, CH3CO2^−, I^−, Br^−, Cl^− and F^−) the following experiment was conducted. A solution (˜21 mM) for of sodium salts of ATP, CTP, ADP, AMP, PPi, H2PO4^−, SO4^−, CH3CO2^−, I^−, Br^−, Cl^−, and F^− were prepared using respective salt in 10 mM HEPES buffer solutions (pH 7.2) and was stored for use. Further, a solution (44.35 μM) of the compound L.Zn (Scheme 1, Formula 1A) was prepared using doubly-distilled and deionized water and stored. These stored solutions were used on the day of preparation of the solution for experiment. […]
A solution of L.Zn (Scheme 1, Formula 1A) (8.87 μM) in aqueous medium was treated with excess amount of ˜500 μM of different phosphate anions like H2PO4^−, PPi, AMP, ADP, ATP and CTP. […] Thus L.Zn (Scheme 1, Formula 1A) can bind ATP selectively among various phosphate anions and the color change associated with the binding of ATP can be detected through naked eye (FIG. 2). […]

A short description of assay [2]: Absorption and 31P NMR study of binding to various anions. The protocol:
as §1

Assay [3] relates to eukaryotic and prokaryotic (Gram +ve/Gram −ve) cells. Put plainly: Staining of eukaryotic and prokaryotic cells, time needed and differentiation. The assay is classed as cell-based. As to the method: Using the present Zn(II)-reagent (L.Zn) in presence of α-CD, eukaryotic and prokaryotic (Gram +ve/Gram −ve) cells could be stained with only 2 minutes incubation; while for the previous reagent (1.Zn) cells were needed to be incubated for 10 minutes for color development. Further, intensity of color of the stained cell (using present Zn(II)-complex was much more intense as compared to that reported earlier.
We also explored the possibility of using L.Zn/L.Zn.α-CD as the staining agent for prokaryotes (Gram +ve and Gram −ve bacterial cells). […] As expected stained cells for Gram +ve bacteria appeared longer as compared to those of the stained Gram −ve bacteria. The difference in the staining intensity for two different bacteria with the L.Zn.α-CD (Scheme 2) could be much better understood after going into the depth of cell biology of each bacterial cells and the detailed biochemistry involved while staining; besides, difference in cell structure and cell wall composition of the respective bacteria. […] Changes on the cell surfaces on binding of the dye, L.Zn (Scheme 1, Formula 1A) were also evident from the SEM images recorded for Gram −ve and Gram +ve bacteria, in absence and presence of staining agent (FIGS. 11C to 11F). […] The growth profile of Eukaryotic Yeast cells (Saccharomyces cerevisiae) and Prokaryotic bacterial cells ([…]) in an aqueous culture medium in absence and presence of L.Zn (Scheme 1, Formula 1A) are shown in FIG. 12. Change in absorbance (at λmax=600 nm) vs time (t) was plotted up to 30 h; as no appreciable change in growth was observed thereafter. […] FIGS. 12a, 12c and 12e show the actual growth curve of Saccharomyces cerevisiae, Pseudomonas fluorescence and Bacillus megaterium, respectively with time. While, FIGS. 12b, 12d and 12f show relative build up of ATP in cytoplasm with time for Saccharomyces cerevisiae, Pseudomonas fluorescence and Bacillus megaterium, respectively in presence of L.Zn (Scheme 1, Formula 1A) (D1) and L.Zn.α-CD (Scheme 2) (D2). […]

With `CN(C)c1ccc(N=Nc2ccc(S(=O)(=O)N3CCCNCCNCCCNCC3)cc2)cc1.O=[N+]([O-])[O-].O=[N+]([O-])[O-].[Zn+2]` [L.Zn], in assay [1] (L.Zn 8.87 μM in aqueous medium, ~500 μM anion), the “color change on addition of ADP (naked eye)” value is “Slight color change”. In assay [1] (spectrophotometric titration, pH 7.2, 10 mM HEPES, 25° C.), the “binding constant for the formation of the complex L.Zn-ADP” value is reported as 142 (±15) M^−1. Moreover, the “observed binding preference / trend in binding affinity” value in assay [2] (31P NMR and spectral data) is given as “ATP>>CTP>ADP>>AMP”. Moreover, the “change of absorption spectrum on addition of other anions” value in assay [2] (2000 equivalents of other anions, pH 7.2) was “no change was observed”. The “incubation time needed for staining” value in assay [3] (in presence of α-CD) is 2 min. In addition, in assay [3] (through different color intensities and shape of the stained cells), the “distinguishing Gram +ve and Gram −ve bacteria” value was “could also distinguish Gram +ve and Gram −ve bacteria”. Also, the “time in which staining takes place” value in assay [3] (without α-CD) lay within 10 to 20 min.

Values taken from patent US20130130306A1, “ZN (II) BASED COLORIMETRIC SENSOR AND PROCESS FOR THE PREPARATION THEREOF” (COUNCIL OF SCIENTIFIC & INDUSTRIAL RESEARCH, priority 2010, published 2013).
